Legend:
Format in all cases: cell-based
Citrobacter diversus = test: MIC against Gram-negative bacteria: Citrobacter diversus; settings: for MIC against C. diversus: Citrobacter diversus
How it was run: (§1)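 The recombinant human-originated EGF domain proteins were serially diluted two-fold against bacteria at 5×10^5 CFU/mL in LB medium. After shaken incubation at 37° C, the lowest concentration with no bacterial growth was recorded as the MIC.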

Proteus vulgaris = test: MIC against Gram-negative bacteria: Proteus vulgaris; settings: for MIC against P. vulgaris: Proteus vulgaris
How it was run: as §1

E. coli DH5α = test: Antibacterial activity: MIC and growth curve against E. coli DH5α in 96-well plate; settings: minimal inhibitory concentration against E. coli DH5α; 96-well plate, 5×10^5 CFU/mL, 37° C., judged after 8 h
How it was run: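 MIC taken as lowest protein level with no bacterial growth, tracked by A600 every 30 min during 37 °C, 175 rpm culture. Two-fold protein series 50-12.5 μg/mL final, triplicate wells, against 5×10^5 CFU/mL of LB-washed mid-log cells.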

Moraxella catarrhalis = test: MIC against Gram-negative bacteria: Moraxella catarrhalis; settings: for MIC against M. catarrhalis: Moraxella catarrhalis
How it was run: as §1

Serratia marcescens = test: MIC against Gram-negative bacteria: Serratia marcescens; settings: for MIC against S. marcescens: Serratia marcescens
How it was run: as §1

Enterobacter cloacae = test: MIC against Gram-negative bacteria: Enterobacter cloacae; settings: for MIC against E. cloacae: Enterobacter cloacae
How it was run: as §1

Klebsiella pneumonia = test: MIC against Gram-negative bacteria: Klebsiella pneumonia; settings: for MIC against K. pneumonia: Klebsiella pneumonia
How it was run: as §1

E. coli BL21 = test: MIC against Gram-negative bacteria: E. coli BL21
How it was run: as §1

Pseudomonas aeruginosa = test: MIC against Gram-negative bacteria: Pseudomonas aeruginosa; settings: for MIC against P. aeruginosa: Pseudomonas aeruginosa
How it was run: as §1

Proteus mirabilis = test: MIC against Gram-negative bacteria: Proteus mirabilis; settings: for MIC against P. mirabilis: Proteus mirabilis
How it was run: as §1

Aeromonas hydrophila = test: MIC against Gram-negative bacteria: Aeromonas hydrophila; settings: for MIC against A. hydrophila: Aeromonas hydrophila
How it was run: as §1

[1] = C. diversus, 10 h cultivation at 37° C.
[2] = P. vulgaris, 10 h cultivation at 37° C.
[3] = M. catarrhalis, 10 h cultivation at 37° C.
[4] = S. marcescens, 10 h cultivation at 37° C.
[5] = E. cloacae, 10 h cultivation at 37° C.
[6] = K. pneumonia, 10 h cultivation at 37° C.
[7] = E. coli BL21, 10 h cultivation at 37° C.
[8] = P. aeruginosa, 10 h cultivation at 37° C.
[9] = P. mirabilis, 10 h cultivation at 37° C.
[10] = A. hydrophila, 10 h cultivation at 37° C.
[11] = C. diversus, 10 h cultivation at 37° C., 5×10^5 CFU/mL
[12] = P. vulgaris, 10 h cultivation at 37° C., 5×10^5 CFU/mL
[13] = M. catarrhalis, 10 h cultivation at 37° C., 5×10^5 CFU/mL
[14] = S. marcescens, 10 h cultivation at 37° C., 5×10^5 CFU/mL
[15] = E. cloacae, 10 h cultivation at 37° C., 5×10^5 CFU/mL
[16] = K. pneumonia, 10 h cultivation at 37° C., 5×10^5 CFU/mL
[17] = E. coli BL21, 10 h cultivation at 37° C., 5×10^5 CFU/mL
[18] = P. aeruginosa, 10 h cultivation at 37° C., 5×10^5 CFU/mL
[19] = P. mirabilis, 10 h cultivation at 37° C., 5×10^5 CFU/mL
[20] = A. hydrophila, 10 h cultivation at 37° C., 5×10^5 CFU/mL
[21] = 96-well plate, 5×10^5 CFU/mL, 37° C., 10 h
[22] = E. coli BL21, 96-well plate, 5×10^5 CFU/mL, 37° C., 10 h
[23] = 10 h cultivation at 37° C., 5×10^5 CFU/mL, two-fold serial dilution

Substance	MIC (Citrobacter diversus; [1])	MIC (Proteus vulgaris; [2])	MIC (E. coli DH5α)	MIC (Moraxella catarrhalis; [3])	MIC (Serratia marcescens; [4])	MIC (Enterobacter cloacae; [5])	MIC (Klebsiella pneumonia; [6])	MIC (E. coli BL21; [7])	MIC (Pseudomonas aeruginosa; [8])	MIC (Proteus mirabilis; [9])	MIC (Aeromonas hydrophila; [10])	MIC against C. diversus (Citrobacter diversus; [21])	MIC against P. vulgaris (Proteus vulgaris; [21])	MIC against M. catarrhalis (Moraxella catarrhalis; [21])	MIC against S. marcescens (Serratia marcescens; [21])	MIC against E. cloacae (Enterobacter cloacae; [21])	MIC against K. pneumonia (Klebsiella pneumonia; [21])	MIC against E. coli BL21 (E. coli BL21; [22])	MIC against P. aeruginosa (Pseudomonas aeruginosa; [21])	MIC against P. mirabilis (Proteus mirabilis; [21])	also measured
PRT995 (ETNECASAPCLNHADCHDLLNGFQCICLPGFSGTRCE; listed as Homo sapiens)	25 µg/mL	50 µg/mL	12.5 µg/mL	12.5 µg/mL	12.5 µg/mL	12.5 µg/mL	50 µg/mL	50 µg/mL	12.5 µg/mL	25 µg/mL	50 µg/mL	–	–	–	–	–	–	–	–	–	–
PRT412 (LNDRCRGGGPCKQQCRDTGDEVVCSCFVGYQLLSDGVSCE; listed as Homo sapiens)	–	–	12.5 µg/mL	–	–	–	–	–	–	–	–	–	–	–	–	–	–	–	–	–	MIC (Citrobacter diversus; [11]): 12.5 µg/mL; MIC (Proteus vulgaris; [12]): 25 µg/mL; MIC (Moraxella catarrhalis; [13]): 25 µg/mL; MIC (Serratia marcescens; [14]): 12.5 µg/mL; MIC (Enterobacter cloacae; [15]): 50 µg/mL; MIC (Klebsiella pneumonia; [16]): 25 µg/mL; MIC (E. coli BL21; [17]): 50 µg/mL; MIC (Pseudomonas aeruginosa; [18]): 12.5 µg/mL; MIC (Proteus mirabilis; [19]): 12.5 µg/mL; MIC (Aeromonas hydrophila; [20]): 25 µg/mL
PRT166 (NGSPCQHGGTCVDDEGRASHASCLCPPGFSGNFCE; listed as Homo sapiens)	–	–	12.5 µg/mL	–	–	–	–	–	–	–	–	–	–	–	–	–	–	–	–	–	MIC (μg/mL) C. diversus (Citrobacter diversus; [11]): 12.5 µg/mL; MIC (μg/mL) P. vulgaris (Proteus vulgaris; [12]): 12.5 µg/mL; MIC (μg/mL) M. catarrhalis (Moraxella catarrhalis; [13]): 12.5 µg/mL; MIC (μg/mL) S. marcescens (Serratia marcescens; [14]): 50 µg/mL; MIC (μg/mL) E. cloacae (Enterobacter cloacae; [15]): 12.5 µg/mL; MIC (μg/mL) K. pneumonia (Klebsiella pneumonia; [16]): 25 µg/mL; MIC (μg/mL) E. coli BL21 (E. coli BL21; [17]): 25 µg/mL; MIC (μg/mL) P. aeruginosa (Pseudomonas aeruginosa; [18]): 12.5 µg/mL; MIC (μg/mL) P. mirabilis (Proteus mirabilis; [19]): 12.5 µg/mL; MIC (μg/mL) A. hydrophila (Aeromonas hydrophila; [20]): 12.5 µg/mL
PRT945 (QLDECASNPCQHGATCSDFIGGYRCECVPGYQGVNCE; listed as Homo sapiens)	12.5 µg/mL	12.5 µg/mL	25 µg/mL	25 µg/mL	25 µg/mL	25 µg/mL	12.5 µg/mL	50 µg/mL	25 µg/mL	50 µg/mL	50 µg/mL	–	–	–	–	–	–	–	–	–	–
PRT1314 (ARNPCTDGHRGGCSEHANCLSTGLNTRRCECHAGYVGDGLQCL; listed as Homo sapiens)	–	–	12.5 µg/mL	–	–	–	–	–	–	–	–	12.5 µg/mL	12.5 µg/mL	12.5 µg/mL	12.5 µg/mL	12.5 µg/mL	50 µg/mL	50 µg/mL	12.5 µg/mL	12.5 µg/mL	MIC against A. hydrophila (Aeromonas hydrophila; [21]): 50 µg/mL
PRT1266 (CMNKDHGCSHICKEAPRGSVACECRPGFELAKNQRDC; listed as Homo sapiens)	–	–	50 µg/mL	–	–	–	–	–	–	–	–	12.5 µg/mL	12.5 µg/mL	25 µg/mL	50 µg/mL	25 µg/mL	50 µg/mL	12.5 µg/mL	25 µg/mL	50 µg/mL	MIC against A. hydrophila (Aeromonas hydrophila; [21]): 25 µg/mL
PRT693 (SSGMCQRNPQVCGPGRCISRPSGYTCACDSGFRLSPQGTRCI; listed as Homo sapiens)	–	–	25 µg/mL	–	–	–	–	–	–	–	–	–	–	–	–	–	–	–	–	–	MIC C. diversus (Citrobacter diversus; [21]): 50 µg/mL; MIC P. vulgaris (Proteus vulgaris; [21]): 50 µg/mL; MIC M. catarrhalis (Moraxella catarrhalis; [21]): 12.5 µg/mL; MIC S. marcescens (Serratia marcescens; [21]): 50 µg/mL; MIC E. cloacae (Enterobacter cloacae; [21]): 12.5 µg/mL; MIC K. pneumonia (Klebsiella pneumonia; [21]): 25 µg/mL; MIC E. coli BL21 (E. coli BL21; [21]): 12.5 µg/mL; MIC P. aeruginosa (Pseudomonas aeruginosa; [21]): 50 µg/mL; MIC P. mirabilis (Proteus mirabilis; [21]): 25 µg/mL; MIC A. hydrophila (Aeromonas hydrophila; [21]): 25 µg/mL
PRT1190 (DLNYCGSHHPCTNGGTCINAEPDQYRCTCPDGYSGRNCE; listed as Homo sapiens)	–	–	50 µg/mL	–	–	–	–	–	–	–	–	–	–	–	–	–	–	–	–	–	MIC C. diversus (Citrobacter diversus; [23]): 25 µg/mL; MIC P. vulgaris (Proteus vulgaris; [23]): 12.5 µg/mL; MIC M. catarrhalis (Moraxella catarrhalis; [23]): 50 µg/mL; MIC S. marcescens (Serratia marcescens; [23]): 50 µg/mL; MIC E. cloacae (Enterobacter cloacae; [23]): 50 µg/mL; MIC K. pneumonia (Klebsiella pneumonia; [23]): 12.5 µg/mL; MIC E. coli BL21 (E. coli BL21; [23]): 12.5 µg/mL; MIC P. aeruginosa (Pseudomonas aeruginosa; [23]): 25 µg/mL; MIC P. mirabilis (Proteus mirabilis; [23]): 25 µg/mL; MIC A. hydrophila (Aeromonas hydrophila; [23]): 12.5 µg/mL
PRT1207 (DIDECSDGFVQCDSRANCINLPGWYHCECRDGYHDNGMFSPSGESCE; listed as Homo sapiens)	–	–	12.5 µg/mL	–	–	–	–	–	–	–	–	12.5 µg/mL	12.5 µg/mL	25 µg/mL	12.5 µg/mL	25 µg/mL	12.5 µg/mL	25 µg/mL	12.5 µg/mL	25 µg/mL	MIC against A. hydrophila (Aeromonas hydrophila; [21]): 25 µg/mL
PRT1020 (SRQTCANNRHQCSVHAECRDYATGFCCSCVAGYTGNGRQCV; listed as Homo sapiens)	12.5 µg/mL	50 µg/mL	12.5 µg/mL	12.5 µg/mL	25 µg/mL	12.5 µg/mL	25 µg/mL	12.5 µg/mL	12.5 µg/mL	12.5 µg/mL	12.5 µg/mL	–	–	–	–	–	–	–	–	–	–
